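Exposure lasted 48 hours, with cells grown in 96-well plates and compounds tested at five concentrations. The concentration for 50% growth inhibition is given as GI50.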 Active and inactive are the calls of the source. Rule as the data show it: active = GI50 up to about 1.1 µM and inactive = higher.
Tests used:
Test in all cases: growth of human tumour cells (NCI), 48 h
DLD-1 = test system: DLD-1
XF498 = test system: XF498
SW-620 = test system: SW-620
SK-MEL-5 = test system: SK-MEL-5
DMS-273 = test system: DMS-273
SF-539 = test system: SF-539
HCT-15 = test system: HCT-15
SF-268 = test system: SF-268
SNB-19 = test system: SNB-19
HCC 2998 = test system: HCC 2998
ACHN = test system: ACHN
TK-10 = test system: TK-10
SF-295 = test system: SF-295
A498 = test system: A498
HOP-62 = test system: HOP-62
SK-MEL-28 = test system: SK-MEL-28
NCI-H226 = test system: NCI-H226
KM-20L2 = test system: KM-20L2
NCI-H460 = test system: NCI-H460
Malme-3M = test system: Malme-3M
K562 = test system: K562
RPMI-8226 = test system: RPMI-8226
786-0 = test system: 786-0
A549 = test system: A549
OVCAR-8 = test system: OVCAR-8
SK-MEL-2 = test system: SK-MEL-2
OVCAR-5 = test system: OVCAR-5
U-251 = test system: U-251
CCRF-CEM = test system: CCRF-CEM
HT-29 = test system: HT-29
SN12C = test system: SN12C
LOX IMVI = test system: LOX IMVI
EKVX = test system: EKVX
HOP-18 = test system: HOP-18
KM12 = test system: KM12
UACC-257 = test system: UACC-257
OVCAR-3 = test system: OVCAR-3
SNB-75 = test system: SNB-75
NCI-H23 = test system: NCI-H23
UO-31 = test system: UO-31
COLO 205 = test system: COLO 205
RXF 393 = test system: RXF 393
OVCAR-4 = test system: OVCAR-4
DMS-114 = test system: DMS-114
IGROV-1 = test system: IGROV-1
M14 = test system: M14
SNB-78 = test system: SNB-78
MOLT-4 = test system: MOLT-4
HOP-92 = test system: HOP-92
UACC-62 = test system: UACC-62
SK-OV-3 = test system: SK-OV-3
HCT-116 = test system: HCT-116
SR = test system: SR
CAKI-1 = test system: CAKI-1
HL-60 = test system: HL-60
LXFL 529 = test system: LXFL 529
M19-MEL = test system: M19-MEL
NCI-H522 = test system: NCI-H522

O=C(c1ccc(Cl)cc1)C1OC12C(=O)Nc1c(Cl)cc(Cl)cc12 (stereo not drawn) was tested, and the GI50 (DLD-1) was 87.3 µM (inactive), the GI50 (XF498) was 15.3 µM (inactive) and the GI50 (SW-620) was 40 µM (inactive). For the same molecule, the GI50 (SK-MEL-5) was 37.5 µM (inactive), the GI50 (DMS-273) was 65.5 µM (inactive) and the GI50 (SF-539) was 75 µM (inactive). For the same molecule, the GI50 (HCT-15) was 42.1 µM, the GI50 (SF-268) was 51.9 µM (inactive) and the GI50 (SNB-19) was 54.3 µM (inactive). For the same molecule, the GI50 (HCC 2998) was > 100 µM (inactive), the GI50 (ACHN) was 92.9 µM (inactive) and the GI50 (TK-10) was 51.2 µM (inactive). For the same molecule, the GI50 (SF-295) was 46.3 µM (inactive), the GI50 (A498) was > 100 µM (inactive) and the GI50 (HOP-62) was > 100 µM (inactive). The GI50 (SK-MEL-28) was 94 µM (inactive), the GI50 (NCI-H226) was 28.3 µM (inactive) and the GI50 (KM-20L2) was 67.5 µM (inactive). The GI50 (NCI-H460) was 50.8 µM (inactive), the GI50 (Malme-3M) was 71.9 µM (inactive) and the GI50 (K562) was 22.3 µM (inactive). For the same molecule, the GI50 (RPMI-8226) was 14.9 µM (inactive), the GI50 (786-0) was 49 µM (inactive) and the GI50 (A549) was 49.9 µM (inactive). For the same molecule, the GI50 (OVCAR-8) was 23 µM (inactive), the GI50 (SK-MEL-2) was 67.5 µM (inactive) and the GI50 (OVCAR-5) was > 100 µM (inactive). For the same molecule, the GI50 (U-251) was 76.7 µM (inactive), the GI50 (CCRF-CEM) was 22.4 µM (inactive) and the GI50 (HT-29) was 41.2 µM (inactive). For the same molecule, the GI50 (SN12C) was 54 µM (inactive), the GI50 (LOX IMVI) was 39.4 µM (inactive) and the GI50 (EKVX) was 19.8 µM (inactive). For the same molecule, the GI50 (HOP-18) was 36.2 µM (inactive), the GI50 (KM12) was 48.6 µM (inactive) and the GI50 (UACC-257) was 26.9 µM (inactive). For the same molecule, the GI50 (OVCAR-3) was 21.2 µM (inactive), the GI50 (SNB-75) was 25.9 µM (inactive) and the GI50 (NCI-H23) was 30.1 µM (inactive). The GI50 (UO-31) was 63.7 µM (inactive).

With COC(=O)C1=C(OC)c2cc3c(cc2C(c2cc(OC)c(OC)c(OC)c2)C1C(=O)OC)OCO3 (stereo not drawn) the GI50 (DLD-1) was > 100 µM (inactive), the GI50 (COLO 205) was 38.7 µM (inactive) and the GI50 (XF498) was > 100 µM (inactive). The GI50 (SW-620) was > 100 µM (inactive), the GI50 (SK-MEL-5) was > 100 µM (inactive) and the GI50 (DMS-273) was > 100 µM (inactive). For the same molecule, the GI50 (RXF 393) was 49 µM (inactive), the GI50 (SF-539) was > 100 µM (inactive) and the GI50 (HCT-15) was > 100 µM. For the same molecule, the GI50 (OVCAR-4) was > 100 µM (inactive), the GI50 (DMS-114) was > 100 µM (inactive) and the GI50 (SF-268) was > 100 µM (inactive). For the same molecule, the GI50 (HCC 2998) was > 100 µM (inactive), the GI50 (IGROV-1) was > 100 µM (inactive) and the GI50 (ACHN) was > 100 µM (inactive). For the same molecule, the GI50 (M14) was > 100 µM (inactive), the GI50 (TK-10) was > 100 µM (inactive) and the GI50 (SF-295) was 59.7 µM (inactive). The GI50 (SNB-78) was > 100 µM (inactive), the GI50 (A498) was 43.2 µM (inactive) and the GI50 (HOP-62) was > 100 µM (inactive). For the same molecule, the GI50 (MOLT-4) was 30.5 µM (inactive), the GI50 (SK-MEL-28) was > 100 µM (inactive) and the GI50 (HOP-92) was 48.9 µM (inactive). For the same molecule, the GI50 (NCI-H226) was > 100 µM (inactive), the GI50 (KM-20L2) was > 100 µM (inactive) and the GI50 (UACC-62) was > 100 µM (inactive). The GI50 (NCI-H460) was > 100 µM (inactive), the GI50 (Malme-3M) was > 100 µM (inactive) and the GI50 (SK-OV-3) was > 100 µM (inactive). The GI50 (K562) was > 100 µM (inactive), the GI50 (RPMI-8226) was 40.6 µM (inactive) and the GI50 (HCT-116) was > 100 µM (inactive). The GI50 (786-0) was > 100 µM (inactive), the GI50 (A549) was > 100 µM (inactive) and the GI50 (SR) was 96.4 µM (inactive). For the same molecule, the GI50 (OVCAR-8) was 79.3 µM (inactive), the GI50 (SK-MEL-2) was > 100 µM (inactive) and the GI50 (OVCAR-5) was > 100 µM (inactive). For the same molecule, the GI50 (CAKI-1) was > 100 µM (inactive), the GI50 (HL-60) was > 100 µM (inactive) and the GI50 (U-251) was > 100 µM (inactive). For the same molecule, the GI50 (CCRF-CEM) was > 100 µM (inactive), the GI50 (HT-29) was > 100 µM (inactive) and the GI50 (LXFL 529) was > 100 µM (inactive). The GI50 (SN12C) was > 100 µM (inactive), the GI50 (LOX IMVI) was > 100 µM (inactive) and the GI50 (EKVX) was > 100 µM (inactive). The GI50 (M19-MEL) was > 100 µM (inactive), the GI50 (HOP-18) was > 100 µM (inactive) and the GI50 (KM12) was > 100 µM (inactive). For the same molecule, the GI50 (UACC-257) was > 100 µM (inactive), the GI50 (OVCAR-3) was > 100 µM (inactive) and the GI50 (SNB-75) was > 100 µM (inactive). The GI50 (NCI-H23) was > 100 µM (inactive) and the GI50 (UO-31) was > 100 µM (inactive).

With COc1ccc(C=O)c(NC(=O)C(C)C)c1 the GI50 (COLO 205) was 18.2 µM (inactive), the GI50 (XF498) was 21.9 µM (inactive) and the GI50 (SW-620) was > 10 µM (inactive). The GI50 (SK-MEL-5) was > 10 µM (inactive), the GI50 (NCI-H522) was 15.9 µM (inactive) and the GI50 (DMS-273) was 28.9 µM (inactive). The GI50 (RXF 393) was 12.3 µM (inactive), the GI50 (SF-539) was 40.4 µM (inactive) and the GI50 (HCT-15) was 33.3 µM. The GI50 (OVCAR-4) was 27 µM (inactive), the GI50 (DMS-114) was 24.4 µM (inactive) and the GI50 (SF-268) was 36.2 µM (inactive). The GI50 (SNB-19) was 72.1 µM (inactive), the GI50 (IGROV-1) was > 100 µM (inactive) and the GI50 (ACHN) was 29.8 µM (inactive). For the same molecule, the GI50 (M14) was 37.6 µM (inactive), the GI50 (TK-10) was 85.7 µM (inactive) and the GI50 (SF-295) was 32.7 µM (inactive). For the same molecule, the GI50 (SNB-78) was 66.1 µM (inactive), the GI50 (A498) was 49.7 µM (inactive) and the GI50 (MOLT-4) was 21.3 µM (inactive). The GI50 (SK-MEL-28) was 69.2 µM (inactive), the GI50 (HOP-92) was 18.2 µM (inactive) and the GI50 (NCI-H226) was > 10 µM (inactive). The GI50 (KM-20L2) was 51.5 µM (inactive), the GI50 (UACC-62) was 30.3 µM (inactive) and the GI50 (NCI-H460) was > 100 µM (inactive). For the same molecule, the GI50 (Malme-3M) was 27.4 µM (inactive), the GI50 (SK-OV-3) was > 100 µM (inactive) and the GI50 (K562) was 31 µM (inactive). The GI50 (RPMI-8226) was 20.5 µM (inactive), the GI50 (HCT-116) was 15.8 µM (inactive) and the GI50 (786-0) was 74.6 µM (inactive). For the same molecule, the GI50 (A549) was 27.2 µM (inactive), the GI50 (OVCAR-8) was 30.8 µM (inactive) and the GI50 (SK-MEL-2) was 37.6 µM (inactive). For the same molecule, the GI50 (OVCAR-5) was > 100 µM (inactive), the GI50 (U-251) was 77.1 µM (inactive) and the GI50 (CCRF-CEM) was > 10 µM (inactive). For the same molecule, the GI50 (HT-29) was 66.7 µM (inactive), the GI50 (LXFL 529) was 44.9 µM (inactive) and the GI50 (SN12C) was 23 µM (inactive). For the same molecule, the GI50 (LOX IMVI) was 31.7 µM (inactive), the GI50 (EKVX) was 31.6 µM (inactive) and the GI50 (M19-MEL) was 21 µM (inactive). For the same molecule, the GI50 (HOP-18) was 39.7 µM (inactive), the GI50 (KM12) was > 10 µM (inactive) and the GI50 (UACC-257) was 27.2 µM (inactive). For the same molecule, the GI50 (OVCAR-3) was 30.5 µM (inactive), the GI50 (SNB-75) was 30.6 µM (inactive) and the GI50 (NCI-H23) was 26 µM (inactive). For the same molecule, the GI50 (UO-31) was 33.3 µM (inactive).

Source: ChEMBL document CHEMBL1201862, “PubChem BioAssay data set” (2004)
